This is an account of results in patent US4122274A, “3-Tetrazolo-5,6,7,8-substituted-pyrido[1,2-a]pyrimidin-4-ones” (priority 1977, dated 1978).

Data set [1] deals with rat Passive Cutaneous Anaphylaxis (PCA) response. Nature of the data set: reagin-mediated rat Passive Cutaneous Anaphylaxis (PCA) screening test. The format is in vivo, rat (Sprague-Dawley). Here is the method:
The reagin-mediated rat Passive Cutaneous Anaphylaxis (PCA) screening test used to evaluate the present compounds is generally regarded as one of the best animal models for use in predicting the antiallergy activity of test compounds in man. Briefly, the method consists of passive sensitization of skin sites on the test animals with reaginic antibodies followed after 24 hours by administration of the test drug and antigen challenge. The allergic response is measured by use of Evans' blue dye and is evaluated by the spot diameter at the injection site. Details of the test are provided below.
A substituted ovalbumin antigen is used both as immunogen and challenging antigen. The antigen is prepared as follows: 500 mg. ovalbumin (EA) and 500 mg. K2 CO3 are dissolved in 25 ml. distilled H2 O and stirred at room temperature for 5 minutes. Five hundred (500) mg. dinitrobenzene sulfonic acid, Na^+ salt, (previously recrystallized from hot absolute ethanol) is then added slowly with continued stirring. The reaction mixture is then immediately placed in the dark and allowed to proceed for 2 hours with constant stirring. After 2 hours the mixture is placed in suitable dialysis tubing and dialyzed against 5 changes (4 liters each) of distilled H2 O at 5° C. After dialysis the product is lyophilized and stored at room temperature in a brown or amber container. The antigen obtained will appear as a light yellow, amorphous solid which is very soluble in water or saline. It is designated as DNP denatured ovalbumin (DNP-d EA).
Adult, male Sprague-Dawley rats are used as a source of reagin-rich antisera for the PCA model. Immunization is by a combination of DNP-d EA on Al(OH)3 gel and B. pertussis vaccine. Preparation of the DNP-d EA-gel immunogen is as follows: Dissolve the DNP-d EA in TBS so as to give a concentration of 10 mg./ml. Slowly add 1 ml. of this solution to 10 ml. Al(OH)3 gel (10 mg. solids/ml.) with constant stirring at room temperature. Stir the mixture an additional 30 minutes to insure a uniform adsorption of antigen on gel.
The resulting preparation is then used in combination with phase I B. pertussis vaccine to immunize male S/D rats as follows: For each rat administer 0.1 ml. DNP-d EA-gel suspension intramuscularly in each hind leg (200 μg DNP-d EA and 2 mg. gel total dose). Follow these injections by the intraperitoneal administration of 1.0 ml. B. pertussis vaccine (10-20 × 10^9 organisms). The use of light ether anesthesia during this procedure is recommended to insure proper intramuscular and intraperitoneal injections. Nine days following immunization (but no longer than 10) the animals are exsanguinated by cardiac puncture or abdominal aorta cannulation under ether or pentobarbital anesthesia. The collected whole blood is allowed to clot, the serum separated by centrifugation and the individual serum samples stored frozen until assayed for IgE content.
Individual serum samples should be screened for reaginic antibody concentration before being pooled with other sera, as not all rats respond to immunization procedures with reagin production. A 1:50 saline dilution of serum from each immunized rat is used for this purpose. Intradermal injections of 0.05 ml. of the diluted sera are made in the shaven backs of two small female recipient rats, 100-120 gms. Several serum samples can be tested simultaneously in recipient animals. After a 24 to 48 hour latent period antigen challenge is accomplished by intravenous administration to each rat of 1 mg. DNP-d EA in 0.5 ml. of 0.5% Evans' blue dye in saline. Sera which show positive PCA reactions at the 1:50 dilution, as measured 20 to 30 minutes post-challenge are pooled, dispensed in small aliquots and stored at -70° C. or lower until used. Negative sera may be discarded.
The IgE titer of the antisera pool should then be determined. […]

For data set [2] the following is noted: must be administered by inhalation; cited from earlier work.
The test system of data set [3] is release of mediators, e.g. histamine and SRS-A. The settings on record: administered to asthmatic patients prior to inhalation of specific antigens; cited from earlier work.
The conditions of data set [4]: treatment of bronchial asthma; cited from earlier work.
[5] abbreviates: po, 10 min prior to antigen challenge, read-out: ID50 (dose of compound that inhibits 50% of the response), p.o.
Where [6] appears, read: iv, test compounds given 1-5 min prior to antigen challenge, DSCG at time of challenge, read-out: ID50 (dose of compound that inhibits 50% of the response), i.v.

Like-named read-outs stand apart in the source and are kept apart here. Bounds are passed on as bounds.

As for `O=c1c(-c2nnn[nH]2)cnc2ccc(-c3ccccc3)cn12` [Example 8, 7-Phenyl-3-(1H-tetrazol-5-yl)-4H-pyrido[1,2-a]pyrimidin-4-one], the ED50 in data set [1] (setting [5]) came to 0.05 mg/kg.

Turning to `Cc1ccc2ncc(-c3nnn[nH]3)c(=O)n2c1` [Example 4, 7-Methyl-3-(1H-tetrazol-5-yl)-4H-pyrido[1,2-a]pyrimidin-4-one], the ED50 in data set [1] (setting [5]) was around 0.1 mg/kg.

Regarding `CCCCc1ccc2ncc(-c3nnn[nH]3)c(=O)n2c1` [Example 7, 7-n-Butyl-3-(1H-tetrazol-5-yl)-4H-pyrido[1,2-a]pyrimidin-4-one], in data set [1] (setting [5]), the ED50 was around 0.1 mg/kg.

With `O=C(O)c1cc(=O)c2c(OCC(O)COc3cccc4oc(C(=O)O)cc(=O)c34)cccc2o1` [DSCG, Disodium cromoglycate, reference compound], the ED50 is around 0.6 mg/kg in data set [1] (setting [6]) and above 30 mg/kg in data set [1] (setting [5]). The oral absorption entry in data set [2] is reported as “not orally absorbed”. In addition, in data set [3], the “inhibition of release of mediators, e.g. histamine and SRS-A” value is “inhibits the release of mediators”.

Take `O=c1c(-c2nnn[nH]2)cnc2ccccn12` [Example 1, 3-(1H-Tetrazol-5-yl)-4H-pyrido[1,2-a]pyrimidin-4-one]: the values for the ED50 in data set [1] (setting [6]) and in data set [1] (setting [5]) were 0.06 mg/kg and around 0.1 mg/kg, respectively.

As to `CC(C)NCC(O)c1ccc(O)c(O)c1` (stereo not drawn) [isoproterenol], the side effects result in data set [4] is “cardiac stimulation and gastrointestinal distress”.

Consider `Cc1cccn2c(=O)c(-c3nnn[nH]3)cnc12` [Example 10, 9-Methyl-3-(1H-tetrazol-5-yl)-4H-pyrido[1,2-a]pyrimidin-4-one], for which the ED50 in data set [1] (setting [5]) worked out at 0.0066 mg/kg.

For the compound `Cc1ccn2c(=O)c(-c3nnn[nH]3)cnc2c1` [Example 5, 8-Methyl-3-(1H-tetrazol-5-yl)-4H-pyrido[1,2-a]pyrimidin-4-one], the ED50 in data set [1] (setting [5]) turned out to be 2.4 mg/kg.

In the case of `CNC[C@H](O)c1ccc(O)c(O)c1` [epinephrine], in data set [4], the side effects result is “cardiac stimulation and gastrointestinal distress”.

Take `CCc1cccn2c(=O)c(-c3nnn[nH]3)cnc12` [Example 12, 9-Ethyl-3-(1H-tetrazol-5-yl)-4H-pyrido[1,2-a]pyrimidin-4-one]: the ED50 in data set [1] (setting [5]) was around 0.0033 mg/kg.

With `Cc1cc(C)c2ncc(-c3nnn[nH]3)c(=O)n2c1` [Example 11, 7,9-Dimethyl-3-(1H-tetrazol-5-yl)-4H-pyrido[1,2-a]pyrimidin-4-one], the ED50 in data set [1] (setting [5]) came out at 0.014 mg/kg.

In the case of `CN1[C@@H]2CC[C@H]1C[C@@H](OC(=O)C(CO)c1ccccc1)C2` (stereo partly drawn) [atropine], in data set [4], the side effects entry was “cardiac stimulation and gastrointestinal distress”.

Consider `O=c1c(-c2nnn[nH]2)cnc2ccc(Cl)cn12` [Example 9, 7-Chloro-3-(1H-tetrazol-5-yl)-4H-pyrido[1,2-a]pyrimidin-4-one], for which, in data set [1] (setting [5]), the ED50 is around 0.07 mg/kg.

`CCc1ccc2ncc(-c3nnn[nH]3)c(=O)n2c1` [Example 6, 7-Ethyl-3-(1H-tetrazol-5-yl)-4H-pyrido[1,2-a]pyrimidin-4-one]: the ED50 in data set [1] (setting [5]) worked out at 0.04 mg/kg.
